Measurements: patent US5945436A, “Pyridylmethyl nitriles, amides and thioamides useful as fungicides” (Uniroyal Chemical Company, Inc., priority 1997, dated 1999)

What was measured:
[1] = test system: Cercosporidium personatum; assay: Fungal germination and growth, treated disc on agar, scored (CER PER); type: cell-based; parameters: key: 100: Complete inhibition of germination and growth.; 80: Nearly complete inhibition but some growth.; 50: Partial inhibition of growth or, early complete inhibition but later growth begins.; 20: Some inhibition of growth, but not significant.; 0: No inhibition of growth; conditions: disc dipped in 500 mg/l, 29° C., numerical score 0-100, spore suspension
Outline: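 Acetone test solutions dried on 11 mm filter paper discs, placed on agar; two drops of C. personatum spore suspension (20,000 spores/ml) applied per disc. Plates incubated at 29° C; germination and growth scored 0 (no inhibition) to 100 (complete inhibition), untreated discs as controls.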

Colletotrichum gossypii = assay: Fungal growth inhibition, treated disc on agar (COL GOS); type: cell-based; conditions: disc dipped in 500 mg/l, 29° C.; for inhibition at 500 µg/mL: Colletotrichum gossypii, read-out: Percent Growth Inhibition, COL GOS
Botrytis cinerea = assay: Fungal growth inhibition, treated disc on agar (BOT CIN); type: cell-based; conditions: disc dipped in 500 mg/l, 29° C.; for inhibition at 500 µg/mL: Botrytis cinerea, read-out: Percent Growth Inhibition, BOT CIN
Scierotinia minor = assay: Fungal growth inhibition, treated disc on agar (SCL MIN); type: cell-based; conditions: disc dipped in 500 mg/l, 29° C.; for inhibition at 500 µg/mL: read-out: Percent Growth Inhibition, SCL MIN
Description: (§1) Filter paper discs, each 11 mm. in diameter, were dipped in each of the test solutions. The discs were allowed to air dry to drive off the acetone solvent. A number of untreated discs were used as controls.
(§2) The treated and untreated discs were then placed on agar plates and one of the following fungus species: Septoria nodorum (SEP NOD), Botrytis cinerea (BOT CIN), Fusarium oxysporum (FUS OXY), Pythium ultimum (PYT ULT), Rhizoctonia solani (RHI SOL), Colletotrichum gossypii (COL GOS), and Scierotinia minor (SCL MIN), was added to the center of each disc in the form of a culture plug with the fungus mat in contact with the paper of the test disc. Cercosporidium personatum (CER PER), was added to discs as a spore suspension (20,000 spores/ml) to the disc (two drops of spore suspension per disc), rather than a mycelial culture plug. The plates were then incubated at 29° C. in an oven.
(§3) With the exception of the discs containing Cercosporidium personatum, the discs were evaluated by first measuring the radius from the center of the fungus colony on the treated discs and on the untreated discs. Percent growth inhibition of each of the compounds tested was determined as a function of the difference between the radius of the fungus colony on the treated disc versus the radius of the fungus colony on the untreated disc.

Pyricularia oryzae = assay: whole plant or invertebrate; type: in vivo; conditions: for pest or weed control at 1000 µg/mL: Pyricularia oryzae, in Hordeum vulgare, foliar, 216 h, read-out: Percent Reduction of Disease, PYR ORY, barley, foliar, 1,000 mg/l
Helminthosporium sativum = assay: Barley spot blotch, foliar treatment (HEL SAT); type: in vivo; conditions: foliar, 1,000 mg/l; for pest or weed control at 1000 µg/mL: Helminthosporium, foliar, 216 h, read-out: Percent Reduction of Disease, HEL SAT
Outline: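 Six-day-old "Robust" barley, 10 plants per pot, sprayed at 1,000 mg/l (acetone solution emulsified in water with TWEEN 20) or left unsprayed as controls. All plants then inoculated with H. sativum spores, held 24 h at 99% humidity, then 8 days in greenhouse at 21° C. Percent control computed.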

Pythium ultimum = assay: Fungal growth inhibition, treated disc on agar (PYT ULT); type: cell-based; conditions: disc dipped in 500 mg/l, 29° C.; for inhibition at 500 µg/mL: Globisporangium ultimum, read-out: Percent Growth Inhibition, PYT ULT
Description: as §1, §2, §3

## CCCCCC(CCc1ccc(F)cc1)(C(N)=O)c1cccnc1 (stereo not drawn) [Compound 62]
[1]
  CER PER inhibition score: 0
Colletotrichum gossypii
  inhibition at 500 µg/mL: 25%
Botrytis cinerea
  inhibition at 500 µg/mL: 0%
Scierotinia minor
  inhibition at 500 µg/mL: 100%
Pyricularia oryzae
  pest or weed control at 1000 µg/mL: 0%
Helminthosporium sativum
  pest or weed control at 1000 µg/mL: 0%
Pythium ultimum
  inhibition at 500 µg/mL: 5%

## CCCCC(C#N)(CCc1ccc(OCC)cc1)c1cccnc1.Cl (stereo not drawn) [Compound 42, α-butyl-4-ethoxy-α-(3-pyridinyl)-benzenebutanenitrile hydrochloride]
[1]
  CER PER inhibition score: 0
Colletotrichum gossypii
  Percent Growth Inhibition, COL GOS: 100%
Botrytis cinerea
  Percent Growth Inhibition, BOT CIN: 100%
Scierotinia minor
  Percent Growth Inhibition, SCL MIN: 44%
Pyricularia oryzae; barley, foliar, 1,000 mg/l
  Percent Reduction of Disease, PYR ORY: 67%
Helminthosporium sativum
  Percent Reduction of Disease, HEL SAT: 100%
Pythium ultimum
  Percent Growth Inhibition, PYT ULT: 3%

## COc1ccc(CCC(C#N)(CC2CC2)c2cccnc2)cc1 (stereo not drawn) [Compound 37]
[1]
  CER PER inhibition score: 0
Colletotrichum gossypii
  inhibition at 500 µg/mL: 100%
Botrytis cinerea
  inhibition at 500 µg/mL: 100%
Scierotinia minor
  inhibition at 500 µg/mL: 100%
Pyricularia oryzae
  pest or weed control at 1000 µg/mL: 100%
Helminthosporium sativum
  pest or weed control at 1000 µg/mL: 100%
Pythium ultimum
  inhibition at 500 µg/mL: 9%

## CC(C)=CCC(C#N)(CCc1ccc(F)cc1)c1cccnc1 (stereo not drawn) [Compound 47]
[1]
  CER PER inhibition score: 0
Colletotrichum gossypii
  inhibition at 500 µg/mL: 100%
Botrytis cinerea
  inhibition at 500 µg/mL: 100%
Scierotinia minor
  inhibition at 500 µg/mL: 100%
Pyricularia oryzae
  pest or weed control at 1000 µg/mL: 0%
Helminthosporium sativum
  pest or weed control at 1000 µg/mL: 100%
Pythium ultimum
  inhibition at 500 µg/mL: 100%

## CC(C)CC(C#N)(CCc1ccc(F)cc1)c1cccnc1 (stereo not drawn) [Compound 39]
[1]
  CER PER inhibition score: 0
Colletotrichum gossypii
  inhibition at 500 µg/mL: 75%
Botrytis cinerea
  inhibition at 500 µg/mL: 57%
Scierotinia minor
  inhibition at 500 µg/mL: 42%
Pyricularia oryzae
  pest or weed control at 1000 µg/mL: 100%
Helminthosporium sativum
  pest or weed control at 1000 µg/mL: 100%
Pythium ultimum
  inhibition at 500 µg/mL: 44%

## C=CCC(C#N)(CCc1ccccc1)c1cccnc1 (stereo not drawn) [Compound 5]
[1]
  CER PER inhibition score: 0
Colletotrichum gossypii
  inhibition at 500 µg/mL: 97%
Botrytis cinerea
  inhibition at 500 µg/mL: 100%
Scierotinia minor
  inhibition at 500 µg/mL: 95%
Pyricularia oryzae
  pest or weed control at 1000 µg/mL: 83%
Helminthosporium sativum
  pest or weed control at 1000 µg/mL: 70%
Pythium ultimum
  inhibition at 500 µg/mL: 82%
